Source: ChEMBL document CHEMBL4837259, “Comprehensive Approach of 19F Nuclear Magnetic Resonance, Enzymatic, and In Silico Methods for Site-Specific Hit Selection and Validation of Fragment Molecules that Inhibit Methionine γ-Lyase Activity” (J Med Chem, 2021)
Activity calls are given as the source filed them. The calls are words filed in the database; no cut-off is given here.

Key:
[1] = target: T1, L-methionine gamma-lyase (Fusobacterium nucleatum subsp. nucleatum) (UniProt Q8RDT4); experiment: Inhibition of Fusobacterium nucleatum ATCC 25586 recombinant wild type MGL expressed in Escherichia coli BL21 (DE3) assessed as decrease in signal intensity by 19F NMR based competition assay relative to control; parameters: concentration or dose not given beside the values
T1 sequence (whole entry): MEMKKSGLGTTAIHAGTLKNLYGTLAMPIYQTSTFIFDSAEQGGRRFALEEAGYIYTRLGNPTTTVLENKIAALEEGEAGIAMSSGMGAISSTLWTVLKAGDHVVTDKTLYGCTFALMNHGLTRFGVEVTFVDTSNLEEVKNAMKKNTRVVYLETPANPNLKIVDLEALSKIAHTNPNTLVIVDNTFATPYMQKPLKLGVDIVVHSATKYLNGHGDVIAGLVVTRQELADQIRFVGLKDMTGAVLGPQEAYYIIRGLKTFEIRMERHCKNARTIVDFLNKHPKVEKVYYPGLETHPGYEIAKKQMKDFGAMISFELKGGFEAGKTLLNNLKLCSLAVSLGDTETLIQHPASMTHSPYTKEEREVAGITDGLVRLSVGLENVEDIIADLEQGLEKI

Fusobacterium nucleatum [2] = experiment: Inhibition of Fusobacterium nucleatum ATCC 25586 recombinant MGL Y111F mutant expressed in Escherichia coli BL21 (DE3) assessed as decrease in signal intensity by measuring recovery ratio by 19F NMR based competition assay relative to wild type; parameters: concentration or dose not given beside the values
Fusobacterium nucleatum [3] = experiment: Inhibition of Fusobacterium nucleatum ATCC 25586 recombinant MGL R373K mutant expressed in Escherichia coli BL21 (DE3) assessed as decrease in signal intensity by measuring recovery ratio by 19F NMR based competition assay relative to wild type; parameters: concentration or dose not given beside the values
Fusobacterium nucleatum [4] = experiment: Inhibition of Fusobacterium nucleatum ATCC 25586 recombinant MGL K238A mutant expressed in Escherichia coli BL21 (DE3) assessed as decrease in signal intensity by measuring recovery ratio by 19F NMR based competition assay relative to wild type; parameters: concentration or dose not given beside the values
[5] = target: T1, L-methionine gamma-lyase (Fusobacterium nucleatum subsp. nucleatum); experiment: Inhibition of Fusobacterium nucleatum ATCC 25586 recombinant wild type MGL expressed in Escherichia coli BL21 (DE3) assessed as formation of 2-ketobutyrate using L-methionine as substrate by enzymatic assay; parameters: concentration or dose not given beside the values; conditions: concentration not given here
Fusobacterium nucleatum [6] = experiment: Inhibition of Fusobacterium nucleatum ATCC 25586 recombinant MGL R58A mutant expressed in Escherichia coli BL21 (DE3) assessed as decrease in signal intensity by measuring recovery ratio by 19F NMR based competition assay relative to wild type; parameters: scale not given: the % may be the effect or the level left
Fusobacterium nucleatum [7] = experiment: Inhibition of Fusobacterium nucleatum ATCC 25586 recombinant MGL Y56F mutant expressed in Escherichia coli BL21 (DE3) assessed as decrease in signal intensity by measuring recovery ratio by 19F NMR based competition assay relative to wild type; parameters: concentration or dose not given beside the values
Fusobacterium nucleatum [8] = experiment: Inhibition of Fusobacterium nucleatum ATCC 25586 recombinant MGL R373A mutant expressed in Escherichia coli BL21 (DE3) assessed as decrease in signal intensity by measuring recovery ratio by 19F NMR based competition assay relative to wild type; parameters: scale not given: the % may be the effect or the level left
Fusobacterium nucleatum [9] = experiment: Inhibition of Fusobacterium nucleatum ATCC 25586 recombinant MGL R58K mutant expressed in Escherichia coli BL21 (DE3) assessed as decrease in signal intensity by measuring recovery ratio by 19F NMR based competition assay relative to wild type; parameters: scale not given: the % may be the effect or the level left
Fusobacterium nucleatum [10] = experiment: Inhibition of Fusobacterium nucleatum ATCC 25586 recombinant MGL C113S mutant expressed in Escherichia coli BL21 (DE3) assessed as decrease in signal intensity by measuring recovery ratio by 19F NMR based competition assay relative to wild type; parameters: scale not given: the % may be the effect or the level left

Compound | Activity [1] [%] | Activity (Fusobacterium nucleatum [2]) | Activity (Fusobacterium nucleatum [3]) | Activity (Fusobacterium nucleatum [4]) | inhibition [5] [%] | Activity (Fusobacterium nucleatum [6]) | Activity (Fusobacterium nucleatum [7]) [%] | Activity (Fusobacterium nucleatum [8]) | Activity (Fusobacterium nucleatum [9]) [%] | Activity (Fusobacterium nucleatum [10])
CC(C)(C)OC(=O)N1CCC(CN)(c2cccc(F)c2)CC1 | 65 | Active | Active | Active | 16.1 | Active | 50 | inactive | 80 | Active
CC(C)(C)OC(=O)N[C@H]1CC[C@H](N2Cc3ccc(F)cc3C2=O)CC1 | 70 | Active | Active | Active | -1.2 | Active | 50 | Active | 50 | 50%
O=C(O)c1cc(F)c(OCC2CC2)c(F)c1 | 77 | 80% | Active | Active | 9.5 | 80% | 80 | 80% | 50 | Active
CCOC(=O)c1nc(-c2ccc(F)cc2)no1 | 84 | 50% | 50% | Active | 33.1 | 80% | 80 | 80% | 50 | Active
O=C(O)c1ccnc(OC(F)(F)F)c1 | 76 | 50% | 50% | 50% | 22.3 | 80% | 80 | 80% | 80 | Active
CC(C)(C)OC(=O)N1CCC(C(=O)O)(c2ccc(C(F)(F)F)cc2)CC1 | 96 | Active | Active | 50% | 12.9 | Active | 80 | Active | 50 | 50%
CC(C)(C)OC(=O)N1CCC(CN)(Cc2ccccc2C(F)(F)F)CC1 | 85 | Active | Active | Active | 56.5 | 50% | 80 | Active | 80 | 80%
Fc1cccc(-c2nnc3ccc(Br)cn23)c1 | 89 |  |  |  | 7.2 |  |  |  |  | 
O=C(O)c1cc(C(F)(F)F)nn1Cc1ccccc1 | 41 | 50% | 50% | Active | 14.5 | 80% | 50 | 50% | 80 | inactive
CC(C)(C)OC(=O)N1CCC(CN)(Cc2ccc(C(F)(F)F)cc2)CC1 | 78 | Active | Active | Active | 78.3 | 50% | 80 | Active | 50 | 50%
O=C(O)c1cnc(OCC(F)(F)F)cn1 | 49 | Active | Active | 50% | 4.4 | 80% | 80 | 80% | 80 | Active
CC(C)(C)OC(=O)N1CCC(CN)(Cc2ccccc2F)CC1 | 63 | inactive | Active | inactive | 30.1 | Active | 80 | inactive | 50 | 80%
